Source: patent publication US6056944A, “Pharmaceutical compositions for oral use including an NSAID and ceramides” (Synthelabo, priority 1995, dated 2000)

System: inflammation of the adult rat paw
Test: carragheenin-induced inflammation of the adult rat paw (edema volume)
Format: in vivo
Settings: gavage, 1 mg/kg, from 4 hours onwards, persisting up to 5 hours
Procedure: These tests consist in inducing inflammation of the adult rat paw and monitoring the development of the edema by measuring the volume of the paw.
The experimental conditions were as follows: rats, weighing from 200 to 220 g, were treated by gavage, 18 hours and 1 hour before administering the inflammatory agent, with the NSAI product to be studied, which was or was not combined with ceramides and which was administered in a volume of 0.5 ml. Control groups were given an 0.9% solution of sodium chloride.
The inflammatory reaction is induced by subcutaneously injecting 0.1 ml of a suspension of carragheenin in physiological saline. The volume of the paw is measured, using a mercury plethysmograph, before the inflammation starts, 30 minutes after it has started, and then every hour up to the 6th hour, and then finally 24 hours afterwards. The changes in volume are measured in cm on a graduated scale.
The tests were carried out with ketoprofen lysine, which was administered at 1 and 3 mg/kg and which was or was not combined with 0.5% of ceramides, and with ketoprofen, which was administered at 1 mg/kg and which was or was not combined with 1% of ceramides.

CC(C(=O)O)c1cccc(C(=O)c2ccccc2)c1 (stereo not shown) [ketoprofen]
anti-inflammatory effect as compared with the control: significant as compared with the control
